Measurements taken from ChEMBL document CHEMBL1149620, “Synthesis and biological evaluation of cyclic and branched peptide analogues as ligands for cholecystokinin type 1 receptor” (Bioorg Med Chem, 2007).
Numbered stars: 1 amine (or outer) side, 2 acyl side, 3 side chain; on linkers, the order of the positions; unused ones are H or OH. Bridge positions count the residues as written; N and C are the ends. Square brackets hold non-standard residues; d marks the D form. Peptide text beside a SMILES is read from it. X4 = O=C([C@H](CCCCNCc1ccccc1)N[*:1])[*:2]; sY = N[C@@H](Cc1ccc(OS(=O)(=O)O)cc1)C(=O)O; X3 = O=C([C@H](CCNCc1ccccc1)N[*:1])[*:2]; X2 = O=C([C@H](CNCc1ccccc1)N[*:1])[*:2]; Dap = NC[C@H](N)C(=O)O; βAla = NCCC(=O)O

Molecular target: T1, Cholecystokinin receptor type A (Homo sapiens, UniProt P32238)
T1 sequence (P32238 whole entry): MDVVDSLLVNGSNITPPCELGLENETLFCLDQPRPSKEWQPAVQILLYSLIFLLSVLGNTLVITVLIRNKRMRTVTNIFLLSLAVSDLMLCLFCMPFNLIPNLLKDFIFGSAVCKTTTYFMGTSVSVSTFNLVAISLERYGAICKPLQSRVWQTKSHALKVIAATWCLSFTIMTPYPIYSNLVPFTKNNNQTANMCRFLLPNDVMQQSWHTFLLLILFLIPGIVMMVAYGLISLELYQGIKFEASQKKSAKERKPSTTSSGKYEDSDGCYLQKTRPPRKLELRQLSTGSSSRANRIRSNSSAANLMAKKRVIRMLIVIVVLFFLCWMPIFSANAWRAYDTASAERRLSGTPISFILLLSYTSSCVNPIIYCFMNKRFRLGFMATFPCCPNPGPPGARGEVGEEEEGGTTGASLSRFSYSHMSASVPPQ
Assay: Displacement of [111In]DTPA-Glu-Gly-[Tyr27(SO3H)]-CCK8 from human CCK1 receptor expressed in A431 cells
Format: cell-based, A-431

Row | IC50 | IC50 (a-431) | SMILES
1 | 24.7 µM | – | CSCC[C@@H]1NC(=O)[C@H](Cc2c[nH]c3ccccc23)NC(=O)[C@@H](NC(=O)[C@H](CCSC)NC(=O)[C@H](Cc2ccc(OS(=O)(=O)O)cc2)NC(=O)[C@@H](N)CC(=O)O)CNC(=O)CNC(=O)[C@H](CCCCNCc2ccccc2)NC(=O)[C@H](CC(=O)O)NC1=O (H-D[sY]M[Dap]WMD[X4]G; lactam 4-C)
2 | 6.94 µM | – | CSCC[C@@H]1NC(=O)[C@H](Cc2c[nH]c3ccccc23)NC(=O)[C@@H](NC(=O)[C@H](CCSC)NC(=O)[C@H](Cc2ccc(OS(=O)(=O)O)cc2)NC(=O)[C@@H](N)CC(=O)O)CNC(=O)CNC(=O)[C@H](CCNCc2ccccc2)NC(=O)[C@H](CC(=O)O)NC1=O (H-D[sY]M[Dap]WMD[X3]G; lactam 4-C)
3 | 26.3 µM | – | CSCC[C@@H]1NC(=O)[C@H](Cc2c[nH]c3ccccc23)NC(=O)[C@@H](NC(=O)[C@H](CCSC)NC(=O)[C@H](Cc2ccc(OS(=O)(=O)O)cc2)NC(=O)[C@@H](N)CC(=O)O)CNC(=O)CNC(=O)[C@H](Cc2ccccc2)NC(=O)[C@H](CC(=O)O)NC1=O (H-D[sY]M[Dap]WMDFG; lactam 4-C)
4 | 7.46 µM | – | CSCC[C@@H]1NC(=O)[C@H](Cc2c[nH]c3ccccc23)NC(=O)[C@@H](NC(=O)[C@H](CCSC)NC(=O)[C@H](Cc2ccc(OS(=O)(=O)O)cc2)NC(=O)[C@@H](N)CC(=O)O)CNC(=O)CNC(=O)[C@H](CNCc2ccccc2)NC(=O)[C@H](CC(=O)O)NC1=O (H-D[sY]M[Dap]WMD[X2]G; lactam 4-C)

The next lines start with the compound.

Row | SMILES | IC50 | IC50 (a-431)
5 | CSCC[C@H](NC(=O)[C@H](Cc1ccc(O)cc1)NC(=O)[C@H](CC(=O)O)NC(=O)CNC(=O)CC[C@@H](C(=O)O)N(CCN(CC(=O)O)CC(=O)O)CCN(CC(=O)O)CC(=O)O)C(=O)NCC(=O)N[C@@H](Cc1c[nH]c2ccccc12)C(=O)N[C@@H](CCSC)C(=O)N[C@@H](CC(=O)O)C(=O)N[C@@H](Cc1ccccc1)C(N)=O | – | 0.032 µM
6 | CSCC[C@@H]1NC(=O)[C@H](Cc2c[nH]c3ccccc23)NC(=O)[C@@H](NC(=O)[C@H](CCSC)NC(=O)[C@H](Cc2ccc(OS(=O)(=O)O)cc2)NC(=O)[C@@H](N)CC(=O)O)CNC(=O)[C@H](CCCCN)NC(=O)[C@H](Cc2ccccc2)NC(=O)[C@H](CC(=O)O)NC1=O (H-D[sY]M[Dap]WMDFK; lactam 4-C) | 15 µM | –
7 | CSCC[C@@H]1NC(=O)[C@H](Cc2c[nH]c3ccccc23)NC(=O)[C@@H](NC(=O)[C@H](CCSC)NC(=O)[C@H](Cc2ccc(OS(=O)(=O)O)cc2)NC(=O)[C@@H](N)CC(=O)O)CNC(=O)CCNC(=O)[C@H](Cc2ccccc2)NC(=O)[C@H](CC(=O)O)NC1=O (H-D[sY]M[Dap]WMDF[βAla]; lactam 4-C) | 26.7 µM | –
8 | CSCC[C@@H]1NC(=O)[C@H](Cc2c[nH]c3ccccc23)NC(=O)[C@@H](NC(=O)[C@H](CCSC)NC(=O)[C@H](Cc2ccc(OS(=O)(=O)O)cc2)NC(=O)[C@@H](N)CC(=O)O)CNC(=O)[C@H](C)NC(=O)[C@H](Cc2ccccc2)NC(=O)[C@H](CC(=O)O)NC1=O (H-D[sY]M[Dap]WMDFA; lactam 4-C) | > 1000 µM | –
9 | CSCC[C@@H]1NC(=O)[C@H](Cc2c[nH]c3ccccc23)NC(=O)[C@@H](NC(=O)[C@H](CCSC)NC(=O)[C@H](Cc2ccc(OS(=O)(=O)O)cc2)NC(=O)[C@@H](N)CC(=O)O)CNC(=O)CNC(=O)[C@H](C)NC(=O)[C@H](CC(=O)O)NC1=O (H-D[sY]M[Dap]WMDAG; lactam 4-C) | 7.2 µM | –
